Patent US8632749B2, “Two photon tracer, method for the preparation thereof and the use thereof in screening anticancer agents” (SNU R&DB Foundation, priority 2009, dated 2014)
Where two headings read alike, the source gives them in different places.

Tests used:
[1] = from The Handbook (Molecular Probes); cited from earlier work
[2] = tested on: Human colon cancer tissue and normal tissue; assay: TPM imaging of AG2 uptake in human colon normal and cancer tissue slices
Protocol: In the present invention, an additional assessment was made of the utility of AG2 in tissue imaging for the diagnosis of colon cancer. In this regard, the images of normal- and cancer-tissue slices from colon-cancer patients were employed. […] The tissues were incubated in artificial cerebrospinal fluid (ACSF) for 4 h at 37° C. in the absence and presence of taxol (50 μM), after which AG2 uptake was monitored with TPM by following the change in TPEF at a depth of 100 μm.
Human colon cancer tissue and normal tissue were obtained from colon cancer patients by conducting colonoscopic examinations and taking samples.
Normal tissues, cancerous tissue, and cancerous tissue containing 50 μM taxol were incubated in artificial cerebrospinal fluid (ACSF) bubbled with 95% O2 and 5% CO2 for 4 hrs at 37° C. The tissues were then washed three times with ACSF, transferred to glass-bottomed dishes (MatTek), added with 50 μM AG2, and observed by TPM.
To determine whether the relative uptake was affected by incubation in ACSF, the same experiment was conducted with normal tissue and colon cancerous tissue obtained immediately after the colonoscopic biopsy.

A549 cells [3] = conditions: 0.049 µM
A549 cells [4] = assay: Effect of anticancer agents on AG2 uptake by A549 cells
A549 cells [5] = assay: Tracer uptake by A549 cells, TPM imaging (optimum concentration); assay type: cell-based; conditions: for Cell death in A549 cells: 100 μM probe, 30 min; for Uptake rate (time) in A549 cells: A549 cells labeled with tracer
Protocol: (§1) A549 human lung carcinoma cells, HeLa human cervical carcinoma cells, NIH/3T3 murine fibroblast cells, and HEK293 human embryonic kidney cells were obtained from American Type Culture Collection (ATCC, Manassas, Va., USA). A549 cells were cultured in RPMI 1640 (WelGene) supplemented with heat-inactivated 10% FBS (WelGene), penicillin (100 units/mL), and streptomycin (100 μg/mL).
For labeling, the growth medium was removed and replaced with serum-free RPMI 1640 (without D-glucose) (United Search Partners, Austin, Tex., USA).
The cells were treated and incubated with the required concentration of a tracker at 37° C. for 10 min.
Thereafter, the cells were washed three times with phosphate buffered saline (PBS; Gibco) and then imaged.
(§2) For comparison of the relative uptake of AG1 and AG2 per unit cell, the TPEF intensities from regions of interest were chosen without bias from among 40-60 cells as determined by the photomultiplier tube (PMT) and the data were digitalized using Histogram (a program for data analysis).
In determine the optimum concentration for the uptake experiment, TPM images of A549 cells labeled for 30 min with 6, 12.5, 25, 50, and 100 μM of AG1 and AG2 were compared. The image appeared brighter as the probe concentration was increased up to 50 μM; however, at higher concentrations than this, cell death was observed.
Moreover, the uptake rate was faster (600 vs 800 s) and the TPM image was brighter when the cells were labeled with AG2 than when they were treated with AG1 (FIG. 3). Therefore, 50 μM of AG2 was used for the uptake experiments.

[6] = One-photon absorption/emission spectra and fluorescence quantum yield; assay type: physicochemical; conditions: for Φ, fluorescence quantum yield: ±15%; for pH sensitivity of fluorescence: biologically relevant pH range
Protocol: Absorption spectra were recorded on a Hewlett-Packard 8453 diode array spectrophotometer, and fluorescence spectra were obtained with Amico-Bowman series 2 luminescence spectrometer with a 1-cm standard quartz cell. The fluorescence quantum yield was determined by using Coumarin 307 and Rhodamine B as the reference.

[7] = Measurement of two-photon cross section (TPEF method); assay type: physicochemical; conditions: for Φδmax, two-photon action cross-section / λmax of the two-photon absorption spectrum / δmax, peak two-photon cross-section: PBS buffer; for δmax, peak two-photon cross-section: ±15%
Protocol: The two-photon cross section (δ) was determined using the femto second (fs) fluorescence measurement technique as described previously. AG1, AG2, Cy3-Glc-α, and 2-NBDG were dissolved in 30 mM PBC buffer (137 mM NaCl, 3 mM KCl, 10 mM Na2HPO4, 2 mM KH2PO4, pH 7.4) at a concentration of 5.0×10^−6 M and then the two-photon induced fluorescence intensity was measured at 740-940 nm by using fluorescein (8.0×10^−5 M, pH=11) as the reference, whose two-photon property has already been well characterized. The intensities of the two photon induced fluorescence spectra of the reference and sample emitted at the same excitation wavelength were determined.
The TPA cross section was calculated according to Eq. 1,
The results are shown in FIG. 1 and the above-described Table 1.

A549 cells [8] = assay: Competition experiment for uptake pathway; assay type: cell-based, human; conditions: for Reduction of AG2 fluorescence intensity in A549 cells: AG2 50 μM, 10 min
Protocol: To determine whether the intracellular uptake pathway of AG2 is relevant to that of D-glucose, a competition experiment was conducted.
To this end, A549 cells were incubated with AG2 (50 μM) for 10 min in the presence of 0, 10, and 50 mM D-glucose, and 50 mM L-glucose, and relative AG2 uptake was determined by TPM.

[9] = tested on: A549, HeLa, HEK293 and NIH/3T3 cells; assay: Relative AG2 uptake by cancer and normal cell lines (TPM); assay type: cell-based; conditions: A549, HeLa vs HEK293, NIH/3T3
Description: In order to assess whether AG2 is selectively taken up by cancer cells, the efficiencies of AG2 uptake by A549 (lung carcinoma cell line), HeLa (cervical cancer cell line), HEK293 (human embryonic kidney 293 cell line), and NIH/3T3 (murine fibroblast cell line) cells were compared. […] Therefore, AG2 can be used for visualizing glucose uptake in living cells by TPM, without subjecting the cells to glucose starvation.
as §1
NIH/3T3 cells, HeLa cells, and HEK293 cells were cultured in DMEM (WelGene) supplemented with heat-inactivated 10% FBS (WelGene), penicillin (100 units/mL), and streptomycin (100 μg/mL). All the cell lines were maintained in a humidified atmosphere of 5% CO2 and 95% air at 37° C. […]
as §2

A549 cells [10] = assay: Viability of A549 cells with CCK-8 kit; assay type: cell-based, human; conditions: 50 μM, 10 min
Protocol: FIG. 7: Viability of A549 cells in the presence of AG2 as measured by using CCK-8 kit. The cells were incubated with 50 μM AG2 for 10 min.
In order to confirm that the tracer couldn't affect the viability of A549 cells in the incubation condition, a CCK-8 kit (Cell Counting Kit-8, Dojindo, Japan) was used according to the manufacturer's protocol.

Row | Compound | Cell death in A549 cells (A549 cells [5]) | Uptake rate (time) in A549 cells (A549 cells [5]) [s] | λ(1)max, one-photon absorption maximum ([6]; DMF (ETN 0.386)) [nm] | λflmax, one-photon emission maximum ([6]; DMF (ETN 0.386)) [nm] | Φ, fluorescence quantum yield ([6]; DMF (ETN 0.386)) | λ(1)max, one-photon absorption maximum ([6]; Dioxane (ETN 0.164)) [nm] | λflmax, one-photon emission maximum ([6]; Dioxane (ETN 0.164)) [nm] | Φ, fluorescence quantum yield ([6]; Dioxane (ETN 0.164)) | λ(1)max, one-photon absorption maximum ([6]; EtOH (ETN 0.654)) [nm] | λflmax, one-photon emission maximum ([6]; EtOH (ETN 0.654)) [nm] | Φ, fluorescence quantum yield ([6]; EtOH (ETN 0.654)) | λ(1)max, one-photon absorption maximum ([6]; H2O (ETN 1.00)) [nm] | λflmax, one-photon emission maximum ([6]; H2O (ETN 1.00)) [nm] | Φ, fluorescence quantum yield ([6]; H2O (ETN 1.00)) | λ(1)max, one-photon absorption maximum ([6]; PBS buffer) [nm] | λflmax, one-photon emission maximum ([6]; PBS buffer) [nm] | Φ, fluorescence quantum yield ([6]; PBS buffer) | pH sensitivity of fluorescence [6] | Φδmax, two-photon action cross-section [7] [GM] | λmax of the two-photon absorption spectrum [7] [nm] | also measured
1 | O=[N+]([O-])c1ccc(NC2C(O)OC(CO)C(O)C2O)c2nonc12 [2-NBDG, 2-[N-(7-nitrobenz-2-oxa-1,3-diazol-4-yl)-amino]-2-deoxy-D-glucose] | – | – | – | – | – | – | – | – | – | – | – | – | – | – | – | – | – | – | – | – | λ(1)max, one-photon absorption maximum [1]: 465 nm; λflmax, one-photon emission maximum [1]: 540 nm
2 | CC(=O)O[C@H]1C(=O)[C@@]2(C)[C@H]([C@H](OC(=O)c3ccccc3)[C@]3(O)C[C@H](OC(=O)[C@H](O)[C@@H](NC(=O)c4ccccc4)c4ccccc4)C(C)=C1C3(C)C)[C@]1(OC(C)=O)CO[C@@H]1C[C@@H]2O [Taxol, taxol] | – | – | – | – | – | – | – | – | – | – | – | – | – | – | – | – | – | – | – | – | AG2 uptake of cancer tissue pretreated with agent ([2]; colon cancer tissue, agent 50 μM for 4 hrs in ACSF, depth 100 μm): much slower AG2 uptake than the untreated one; AG2 uptake by A549 (A549 cells [3]; 6 h): 89.6%; AG2 uptake by A549 (A549 cells [3]; 12 h): 69.5%; Cellular uptake of AG2 versus incubation time with agent (A549 cells [4]; A549 cells incubated 1, 3, 6, 12, 24 h with agent): lower with longer incubation times; AG2 uptake by A549 (A549 cells [4]; agent 49 nM (second line, r8), after 6 h): 96.7%; AG2 uptake by A549 (A549 cells [4]; agent 49 nM (second line, r8), after 12 h): 81.8%; AG2 uptake by A549 (A549 cells [4]; agent 9.8 μM, after 6 h): 69.5%; AG2 uptake by A549 (A549 cells [4]; agent 9.8 μM, after 12 h): 50.7%
3 | CC(=O)c1ccc2cc(N(C)CC(=O)NCCOCCOCCNCCOC3OC(CO)C(O)C(O)C3O)ccc2c1 (centres unmarked) [AG1] | some cell death was observed | 800 | 366 | 451 | 1.00 | 360 | 434 | 0.59 | 364 | 479 | 1.00 | 373 | 501 | 0.90 | 373 | 501 | 0.90 | pH insensitive | 86 | 780 | δmax, peak two-photon cross-section [7]: 95 GM; Φδ value from TP action spectrum ([7]; at 780 nm): approximately 90 GM
4 | COc1ccc(C[C@@H](O)c2cc(OC)c(OC)c(OC)c2)cc1O [Combrestastatin, combretastatin] | – | – | – | – | – | – | – | – | – | – | – | – | – | – | – | – | – | – | – | – | AG2 uptake by A549 (A549 cells [4]; agent 2 μM, after 6 h): 70.2%; AG2 uptake by A549 (A549 cells [4]; agent 2 μM, after 12 h): 53.2%
5 | CC(=O)c1ccc2cc(N(C)CC(=O)N3CCN(CCOC4OC(CO)C(O)C(O)C4O)CC3)ccc2c1 (centres unmarked) [AG2] | some cell death was observed | 600 | 369 | 449 | 1.00 | 362 | 425 | 0.72 | 370 | 480 | 0.97 | 375 | 501 | 0.56 | 375 | 501 | 0.56 | pH insensitive | 88 | 780 | AG2 uptake in cancer tissue versus normal tissue ([2]; colon tissue slices, 50 μM AG2, depth 100 μm): much faster than in the normal tissue; Reduction of AG2 fluorescence intensity in A549 cells (A549 cells [8]; medium with 10 mM D-glucose vs glucose-depleted medium): about 16%; Reduction of AG2 fluorescence intensity in A549 cells (A549 cells [8]; medium with 50 mM D-glucose vs glucose-depleted medium): ~74%; AG2 fluorescence intensity in A549 cells (A549 cells [8]; medium with 50 mM L-glucose): not affected; AG2 uptake by A549 cells (A549 cells [8]; presence of 55 mM D-/L-alanine): not influenced; Efficiency of AG2 uptake by cell lines [9]: most efficient in A549 and HeLa cells, followed by HEK293 and NIH/3T3 cells; Effect on viability of cells (CCK8 kit) (A549 cells [10]): negligible toxicity; δmax, peak two-photon cross-section [7]: 155 GM
6 | cyanine-3-linked O-1-glycosylated glucose [Cy3-Glc-α, reference compound] | – | – | – | – | – | – | – | – | – | – | – | – | – | – | 545 | 555 | 0.01 | – | – | – | –
